# Measured values from US20190008810A1, “METHOD FOR PREVENTION, TREATMENT AND ALLEVIATION OF INFECTIOUS DISEASES AND DISORDERS” (REPLICON HEALTH OY, priority 2016, published 2019).
# Assays:
# [1] = tested on: acute upper respiratory infection (nose and throat); assay: Healing from acute upper respiratory infection in S1, Example 1c; type: in vivo, human
# Source text: After successful healing process in November 2014 (Example 1b), S1 was almost excited when they got acute upper respiratory infection when traveling abroad around New Year 2015. Symptoms: a virus infection in throat and rhinitis had lasted for three days before initiation of the DGA activation. S1 felt also feverish during this three-day period (unfortunately there was no thermometer around during the travel).
# Administration on the fourth day of the infection: In the morning at 0940 am S1 took 2×250 mg of D-glyceric acid calcium salt dehydrate mixed into the water. Now, swelling and aching of the throat was quite substantial like had been the case already on the previous night, also some fever was felt.
# At 0330 pm S1 took 2×180 mg of D-glyceric acid calcium salt mixed into water to keep the DGA Activation alive. Swelling had reduced a little but this could be due to circadian variation. Third dose of the day (2×180 mg) was received at 0915 pm. Throat continued to feel better towards the night, alleviation of the symptoms compared to the morning and to the previous night was significant.
# Next morning at 0715 1×200 mg was received. […] However, some swelling in the throat remained but no pain. On top of the DGA Activation 1×500 mg of paracetamol was received at 0840 am, mimicking combination medication like e.g. Tylenol Cold.
# Second 1×200 mg dose was received at 0200 pm. […]
# [2] = tested on: cortisol, TSH, T4; assay: Blood cortisol, TSH and T4 in healthy human volunteers, Example 5a; type: in vivo
# Method: Blood levels of cortisol, thyroid stimulating hormone (TSH) and thyroxin, i.e. thyroid hormone T4 (T4) from standard EDTA blood sample were measured. 0-control and 2 day follow up measurement were conducted at approximately 08.55 am and the same day, 1.5 hour follow up, at 10:25 am. All measurements were conducted in “half fasting” state, i.e. half of the normal breakfast eaten 1.5 hours before the collection of the blood sample, and the other “half” immediately after 0-control measurement. First measurement without the DGA Activation served as the 0-control for both follow up measurements with the DGA Activation. First “DGA measurement” was conducted after 1.5 hours from 0-control (“fast effect”) and the second after 2 days (“persistent effect”). […] Last dose was 300 mg of D-glyceric acid mixed into water (or 430 mg of D-glyceric acid calcium salt dehydrate mixed into water), and otherwise the daily dose was 2*225 mg D-glyceric acid calcium salt dehydrate mixed into water. Male volunteers S1 and S9 weigh 75 kg and 80 kg respectfully.
# [3] = 4-day healthy human nutritional test, blood bilirubin; type: in vivo; conditions: 5-6 mg/kg/twice a day
# Method: S4 had already participated in 4-day healthy volunteer test with the DGA Activation. In that earlier non-acute DGA dosing experiment the last dose of D-glyceric acid mixed into water was received previous night, i.e. 10-12 hours before the blood test. In this test the positive effects of the DGA Activation in health/subclinical stress were observed. […] This was the case for all tested subjects including S1 in Examples 1b-1d (see Table 1e below).
# [4] = tested on: CRP; assay: Blood CRP in discontinuous MPTP/PD disease model; type: in vivo, mice
# Method: In this Example, CRP results from 3 separate preclinical tests are presented and analyzed. First 4-day CRP test was conducted with 8 healthy mice using individuals as their own controls. Second 7-day CRP test was conducted in discontinuous disease model. And third also 7-day CRP test was conducted in continuous disease model. CRP present in mouse serum samples were analyzed using mouse CRP ELISA kit (GWB-3B960E, Genway Biotech Inc.). All blood samples were collected at the same time of the day.
# In two other CRP tests, the effect of the DGA Activation in two disease models, continuous vs. discontinuous was analyzed. In FIG. 4b, results from discontinuous MPTP/PD disease model, and in FIG. 4c, results from continuous IPA/Dry Eye disease model. Logarithmic change of blood CRP during the 7-day disease follow up period of each mouse in all groups was calculated and the averages are presented in FIGS. 4b and 4c. (In both disease models, there was a 4-day priming with 50% DGA dose before activating the disease model and CRP test.)
# Brief description of the disease models: 1) continuous IPA -model (see Example 1a) and 2) discontinuous MPTP/PD -model. MPTP (1-methyl-4-phenyl-1,2,3,6-tetrahydropyridine) is a neurotoxin precursor to MPP+, which causes symptoms of Parkinson's disease (PD). […] Diet consumption per cage is monitored carefully before and during the study follow-up period. […]
structure (smiles),measurement,setting,value
"O=C(O)[C@H](O)CO [DGA, D-glyceric acid]",fever next morning,"[1]; S1, morning after first day of dosing",No fever was observed
same,time to conquer the acute upper respiratory infection,"[1]; S1, started on fourth day of infection, 2×250 mg then 2×180 mg doses",12 to 48 h
same,"TSH decline, fast effect",[2]; 1.5 hours,−24%
same,"decline of blood cortisol, fast effect","[2]; 1.5 hours after dose, both S1 and S9",more than 22%
same,"T4, average change from 0-control",[2]; S1 and S9,less than 1%
same,decrease in blood cortisol,[2]; S1 and S9,20-40%
same,TSH decline,[2]; after 2 days,−13%
same,"S-Bil-Kj, 4 day change from zero control",[3]; subject S1,−17.4%
same,"S-Bil, 4 day change from zero control","[3]; subject S1, fasting blood, non-acute",−19.1%
same,"S-Bil, 4 day change from zero control",[3]; subject S2,−22.8%
same,"S-Bil-Kj, 4 day change from zero control",[3]; subject S2,−23.3%
same,"S-Bil, 4 day change from zero control",[3]; subject S3,−58.1%
same,"S-Bil-Kj, 4 day change from zero control",[3]; subject S3,−58.4%
same,"S-Bil, 4 day change from zero control",[3]; subject S4,−12.6%
same,"S-Bil-Kj, 4 day change from zero control",[3]; subject S4,−8.8%
same,survival and health parameters,[4]; 4+7-day administration,improved survival and health parameters
same,blood CRP change vs 0-control,"[4]; 7-day follow up after 4-day priming, p-value=0.015, pairwise p-value=0005",declined statistically significantly
